Measurements from patent US6492397B1, “N-arylheteroarylalkyl imidazol-2-one compounds for treatment of arteriosclerosis” (Pharmacia Corporation, priority 1991, dated 2002).
Read-outs that look alike come from different tables or passages of the source.

Assays:
rabbit aortic rings = test: Assay B: In Vitro Vascular Smooth Muscle Response for AII (antagonist activity in rabbit aortic rings); type: cell-based; conditions: Oryctolagus cuniculus, test antagonist at 10^-5 M, AII contraction, read-out: Assay B pA2 (converted)
Experimental: Assay B: In Vitro Vascular Smooth Muscle-Response for AII
The compounds of the invention were tested for antagonist activity in rabbit aortic rings. Male New Zealand white rabbits (2-2.5 kg) were sacrificed using an overdose of pentobarbital and exsanguinated via the carotid arteries. The thoracic aorta was removed, cleaned of adherent fat and connective tissue and then cut into 3-mm ring segments. The endothelium was removed from the rings by gently sliding a rolled-up piece of filter paper into the vessel lumen. The rings were then mounted in a water-jacketed tissue bath, maintained at 37° C., between moveable and fixed ends of a stainless steel wire with the moveable end attached to an FT03 Grass transducer coupled to a Model 7D Grass Polygraph for recording isometric force responses. The bath was filled with 20 ml of oxygenated (95% oxygen/5% carbon dioxide) Krebs solution of the following composition (mM): 130 NaCl, 15 NaHCO3, […], 1.2 NaH2PO4, 1.2 MgSO4, 2.5 CaCl2, and 11.4 glucose. The preparations were equilibrated for one hour before approximately one gram of passive tension was placed on the rings. Angiotensin II concentration-response curves were then recorded (3×10^−10 to 1×10^−5 M). Each concentration of AII was allowed to elicit its maximal contraction, and then AII was washed out repeatedly for 30 minutes before rechallenging with a higher concentration of AII. Aorta rings were exposed to the test antagonist at 10^−5 M for 5 minutes before challenging with AII. Adjacent segments of the same aorta ring were used for all concentration-response curves in the presence or absence of the test antagonist. The effectiveness of the test compound was expressed in terms of pA2 values and were calculated according to H. O. Schild [Br. J. Pharmacol. Chemother., 2,189-206 (1947)]. The PA2 value is the concentration of the antagonist which increases the EC50 value for AII by a factor of two. Each test antagonist was evaluated in aorta rings from two rabbits.

pressor response to AII = test: Assay C: In Vivo Intragastric Pressor Assay Response for AII Antagonists; parameters: species or system rat; conditions: for Assay C Duration: Dose: 3 mg/kg (i.g.), Sprague-Dawley rats, AII challenges up to 180 minutes after gavage; for inhibition in vivo at 3 mg/kg: Rattus norvegicus, po
Experimental: Assay C: In Vivo Intragastric Pressor Assay Response for AII Antagonists
Male Sprague-Dawley rats weighing 225-300 grams were anesthetized with methohexital (30 mg/kg, i.p.) and catheters were implanted into the femoral artery and vein. The catheters were tunneled subcutaneously to exit dorsally, posterior to the head and between the scapulae. The catheters were filled with heparin (1000 units/ml of saline). The rats were returned to their cage and allowed regular rat chow and water ad libitum. After full recovery from surgery (3-4 days), rats were placed in Lucite holders and the arterial line was connected to a pressure transducer. Arterial pressure was recorded on a Gould polygraph (mmHg). Angiotensin II was administered as a 30 ng/kg bolus via the venous catheter delivered in a 50 μl volume with a 0.2 ml saline flush. The pressor response in mm Hg was measured by the difference from pre-injection arterial pressure to the maximum pressure achieved. The AII injection was repeated every 10 minutes until three consecutive injections yielded responses within 4 mmHg of each other. These three responses were then averaged and represented the control response to AII. The test compound was suspended in 0.5% methylcellulose in water and was administered by gavage. The volume administered was 2 ml/kg body weight. The standard dose was 3 mg/kg. Angiotensin II bolus injections were given at 30, 45, 60, 75, 120, 150, and 180 minutes after gavage. The pressor response to AII was measured at each time point. The rats were then returned to their cage for future testing. A minimum of 3 days was allowed between tests. Percent inhibition was calculated for each time point following gavage by the following formula: [(Control Response−Response at time point)/Control Response]×100.

[1] = biological target: smooth muscle angiotensin II receptor; test: Assay A: Angiotensin II Binding Activity (125I-angiotensin II displacement, rat uterine membrane preparation); conditions: 50% displacement of specifically bound 125I-AII, rat uterine membranes, 25° C., 60 min
Experimental: Assay A: Angiotensin II Binding Activity
Compounds of the invention were tested for ability to bind to the smooth muscle angiotensin II receptor using a rat uterine membrane preparation. […] Other chemicals were obtained from Sigma Chemical Co. This assay was carried out according to the method of Douglas et al [Endocrinology, 106, 120-124 (1980)]. Rat uterine membranes were prepared from fresh tissue. All procedures were carried out at 4° C. Uteri were stripped of fat and homogenized in phosphate-buffered saline at pH 7.4 containing 5 mM EDTA. The homogenate was centrifuged at 1500×g for 20 min., and the supernatant was recentrifuged at 100,000×g for 60 min. The pellet was resuspended in buffer consisting of 2 mM EDTA and 50 mM Tris-HCl (pH 7.5) to a final protein concentration of 4 mg/ml. Assay tubes were charged with 0.25 ml of a solution containing 5 mM MgCl2, 2 mM EDTA, 0.5% bovine serum albumin, 50 mM Tris-HCl, pH 7.5 and […] (approximately 10^5 cpm) in the absence or in the presence of unlabelled ligand. The reaction was initiated by the addition of membrane protein and the mixture was incubated at 25° C. for 60 min. The incubation was terminated with ice-cold 50 mM Tris-HCl (pH 7.5) and the mixture was filtered to separate membrane-bound labelled peptide from the free ligand. The incubation tube and filter were washed with ice-cold buffer. Filters were assayed for radioactivity in a Micromedic gamma counter. Nonspecific binding was defined as binding in the presence of 10 μM of unlabelled AII. Specific binding was calculated as total binding minus nonspecific binding. […] Binding data were analyzed by a nonlinear least-squares curve fitting program.

[2] = first value of the pair (aorta rings from two rabbits)
[3] = second value of the pair (aorta rings from two rabbits)

SMILES | IC50 [1] | melting point | Kb (rabbit aortic rings; [2]) | Kb (rabbit aortic rings; [3]) | Assay C Duration (pressor response to AII) | inhibition in vivo at 3 mg/kg (pressor response to AII)
CCCCCn1cc(CCCC)n(Cc2ccc(-c3ccccc3-c3nnn[nH]3)nc2)c1=O [Example 15, 1-pentyl-4-butyl-1,3-dihydro-3-[[6-[2-(1H-tetrazol-5-yl)phenyl]-3-pyridinyl]methyl]-2H-imidazol-2-one] | 10 nM | 162 to 164 °C | 1.62 nM | 1.41 nM | >180 min | 60%
CCCCc1cn(CC(C)(C)C)c(=O)n1Cc1ccc(-c2ccccc2-c2nnn[nH]2)nc1 [Example 18, 1-neopentyl-4-butyl-1,3-dihydro-3-[[6-[2-(1H-tetrazol-5-yl)phenyl]-3-pyridinyl]methyl]-2H-imidazol-2-one] | 12 nM | 194.5 to 195 °C | 1.62 nM | 2.29 nM | >180 min | 65%
CCCCc1cn(CC(CC)CC)c(=O)n1Cc1ccc(-c2ccccc2-c2nnn[nH]2)nc1 [Example 20, 1-(2-ethylbutyl)-4-butyl-1,3-dihydro-3-[[6-[2-(1H-tetrazol-5-yl)phenyl]-3-pyridinyl]methyl]-2H-imidazol-2-one] | 16 nM | 174 to 176 °C (dec.) | 0.676 nM | 1.38 nM | >180 min | 75%

Now from value to compound, other results behind:

IC50 [1] | melting point | SMILES | Kb (rabbit aortic rings; [2]) | Kb (rabbit aortic rings; [3]) | Assay C Duration (pressor response to AII) | inhibition in vivo at 3 mg/kg (pressor response to AII)
20 nM | 202 to 203 °C (dec.) | CCCCc1cn(C2CCCCC2)c(=O)n1Cc1ccc(-c2ccccc2-c2nnn[nH]2)nc1 [Example 21, 1-cyclohexyl-4-butyl-1,3-dihydro-3-[[6-[2-(1H-tetrazol-5-yl)phenyl]-3-pyridinyl]methyl]-2H-imidazol-2-one] | 0.724 nM | 0.708 nM | >180 min | 40%
5.4 nM | 182 to 183 °C | CCCCc1cn(CCC2CC2)c(=O)n1Cc1ccc(-c2ccccc2-c2nnn[nH]2)nc1 [Example 22, 1-(2-cyclopropylethyl)-4-butyl 1,3-dihydro3-[[6-[2-(1H-tetrazol-5-yl)phenyl]-3-pyridinyl]methyl]-2H-imidazol-2-one] | 1.78 nM | 1.29 nM | >180 min | 30%
22 nM | 204 °C (dec.) | CCCCc1cn(CC2CCCC2)c(=O)n1Cc1ccc(-c2ccccc2-c2nnn[nH]2)nc1 [Example 24, 1-cyclopentylmethyl-4-butyl-1,3-dihydro-3-[[6-[2-(1H-tetrazol-5-yl)phenyl]-3-pyridinyl]methyl]-2H-imidazol-2-one] | 0.646 nM | 2.04 nM | >180 min | 50%
5 nM | 137 to 138 °C | CCCCc1cn(CCc2cccs2)c(=O)n1Cc1ccc(-c2ccccc2-c2nnn[nH]2)nc1 [Example 25, 1-[2-(2-thienyl)ethyl]-4-butyl-1,3-dihydro-3-[[6-[2-(1H-tetrazol-5-yl)phenyl]-3-pyridinyl]methyl]-2H-imidazol-2-one] | 0.389 nM | 0.692 nM | >180 min | 25%
5.4 nM | 81 to 83 °C | CCCCc1cn(-c2ccccc2Cl)c(=O)n1Cc1ccc(-c2ccccc2-c2nnn[nH]2)nc1 [Example 32, 1-(2-chlorophenyl)-4-butyl-1,3-dihydro-3-[[6-[2-(1H-tetrazol-5-yl)phenyl]-3-pyridinyl]methyl]-2H-imidazol-2-one] | 1.58 nM | 0.912 nM | >180 min | 50%
